Test results reported in patent US5760032A, “Thienylazole compound and thienotriazolodiazepine compound” (Yoshitomi Pharmaceutical Industries, Ltd., priority 1994, dated 1998).
Read-outs that look alike come from different tables or passages of the source.

Key:
[1] = target: T1, CCK-B receptor (Brain) (Rattus norvegicus, UniProt P30553); test: Binding to CCK receptor, cerebral cortex membranes, inhibition of 125I-CCK-8 specific binding; conditions: pH 6.5, 20° C., 30 minutes
T1 construct: from tissue; host or cells: rat cerebral cortex membranes
T1 sequence (P30553 1-452): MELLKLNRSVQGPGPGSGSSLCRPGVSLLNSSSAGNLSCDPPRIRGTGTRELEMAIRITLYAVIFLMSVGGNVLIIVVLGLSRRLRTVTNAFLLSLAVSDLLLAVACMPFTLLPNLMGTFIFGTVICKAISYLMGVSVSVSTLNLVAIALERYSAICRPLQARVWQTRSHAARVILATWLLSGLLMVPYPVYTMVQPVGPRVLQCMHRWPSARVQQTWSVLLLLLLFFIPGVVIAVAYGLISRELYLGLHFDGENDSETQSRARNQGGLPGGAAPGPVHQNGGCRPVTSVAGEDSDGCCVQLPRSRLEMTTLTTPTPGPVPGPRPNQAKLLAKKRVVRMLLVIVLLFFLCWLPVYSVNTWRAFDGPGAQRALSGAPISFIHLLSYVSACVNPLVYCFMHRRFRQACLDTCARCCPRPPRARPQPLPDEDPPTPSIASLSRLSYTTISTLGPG
Method: (§1) Whole pancreas was removed from male Wister rats. Fat tissue was removed and the pancreas was homogenized (Blinkman Polytron PT20) in 10 mM MES buffer (0.02% Bacitracin, 0.02% soy bean-derived trypsin inhibitor, 0.0001% phenylmethanesulfonyl fluoride, pH 6.5). The homogenate was passed through a nylon cloth (120 mesh) and the filtrate was centrifuged at 40,000×g for 15 minutes. The obtained sediment was homogenized in Tris buffer and centrifuged in the same manner as above. The sediment was suspended in a buffer for binding assay (50 mM MES containing 130 mM sodium chloride, 4.7 mM potassium chloride, 5 mM magnesium chloride, 0.02% Bacitracin, 0.0001% phenylmethanesulfonyl fluoride, pH 6.5) and used as a peripheral receptor source. In the case of central tissue, rat cerebral cortex was used for the preparation by suspending same in a buffer (pH 6.5) containing 5 mM magnesium chloride, 1 mM EGTA [ethylene glycol bis(2-aminoethylether)tetraacetic acid], 360 mM sodium chloride, 15 mM potassium chloride, 20 mM HEPES (N-2-hydroxyethylpiperazine-N'-2-ethanesulfonic acid) and 0.25 mg/ml Bacitracin. For binding assay, 50 μl buffer (for total binding use) and unlabelled CCK-8 sulfate (for non-specific binding) having a final concentration of 1 μM or a test compound (^125 I-CCK-8, 63-67 TBq/mmol, 40,000-50,000 cpm, 50 μl) were added to a membrane suspension (450 μl, containing 100 μg as protein). The reaction mixture was incubated at 20° C. for 30 minutes and filtered through a glass fiber filter (Whatman G/FB) by suction. Immediately thereafter, the filter was washed three times with ice-cold Tris buffer (2.5 ml) and the radioactivity on the filter was determined.
(§2) The effects of the test compound on the CCK receptor binding were evaluated by the concentration (IC50, nM) necessary for inhibiting the specific binding by 50%, which was obtained by calculating the inhibition ratio by the following formula: [formula]
(§3) The results of the effects of the test compounds on the CCK receptor binding are shown in the following

[2] = target: T2, CCK-A receptor (Pancreas) (Rattus norvegicus, UniProt P30551); test: Binding to CCK receptor, pancreas membranes, inhibition of 125I-CCK-8 specific binding
T2 construct: Whole pancreas was removed from male Wister rats; from tissue; host or cells: rat pancreas membranes (male Wistar rats)
T2 sequence (P30551 1-444): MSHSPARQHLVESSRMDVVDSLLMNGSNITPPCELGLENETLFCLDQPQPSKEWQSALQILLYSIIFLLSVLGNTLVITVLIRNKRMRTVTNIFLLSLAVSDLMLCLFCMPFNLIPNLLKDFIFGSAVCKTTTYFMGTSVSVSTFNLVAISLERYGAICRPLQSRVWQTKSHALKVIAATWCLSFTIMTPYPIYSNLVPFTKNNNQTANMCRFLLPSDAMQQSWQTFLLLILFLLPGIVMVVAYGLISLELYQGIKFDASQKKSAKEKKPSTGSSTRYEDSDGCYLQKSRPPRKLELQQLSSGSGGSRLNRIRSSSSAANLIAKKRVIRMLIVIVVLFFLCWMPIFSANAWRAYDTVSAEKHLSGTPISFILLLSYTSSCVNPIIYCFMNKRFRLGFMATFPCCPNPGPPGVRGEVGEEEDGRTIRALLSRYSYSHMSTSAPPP
Method: as §1, §2, §3

[3] = tested on: CCK-8-induced secretion of pancreatic juice (trypsin secretion); test: Effects on CCK-induced secretion of pancreatic juice in guinea pig under anesthesia; assay type: in vivo; conditions: 300 μg/kg intravenous, 5 minutes before second CCK-8 (0.1 μg/kg i.v.); male guinea pigs under urethane anesthesia
Method: Effects on CCK-induced secretion of pancreatic juice in guinea pig under anesthesia
Male guinea pigs weighing about 650 g were anesthetized by subcutaneous administration of urethane (1.6 g/kg), and a cannula for injection of perfusing solution was inserted into the pyloric part of stomach and a discharge cannula was inserted at a position 2 cm distal from Treitz ligament. Duodenum was perfused with physiological saline at a rate of 8 ml/15 min, and trypsin secretion in the perfusate was determined. For the determination, Na-benzoyl-arginine p-nitroanilide (BAPNA) was used as a synthetic substrate and spectrophotometer was used for the determination. Secretion of pancreatic juice was induced by an intravenous administration of CCK-8 (0.1 μg/kg), and 60 minutes later, CCK-8 was administered again. The inhibition ratio of the test compound which was intravenously administered at 5 minutes before the second administration of CCK-8 was calculated by the following formula: [formula]
The effects of the test compounds on inhibition of secretion of pancreatic juice induced by CCK receptor in guinea pig under anesthesia are shown in the following

[4] = rat pancreas membranes, 125I-CCK-8, pH 6.5, 20° C., 30 minutes, read-out: Pancreas (CCK-A) IC50

Compound	IC50 [1] [nM]	IC50 [2, 4] [nM]	IC50 [2] [nM]	Inhibition of CCK-8-induced secretion of pancreatic juice [3] [%]
CCc1cc2c(s1)-n1c(nnc1CNC(=O)c1ccc(Cl)c(Cl)c1)CN=C2c1ccccc1Cl [Example 59, N-(4-(2-chlorophenyl)-2-ethyl-6H-thieno[3,2-f] [1,2,4]triazolo[4,3-a] [1,4]diazepin-9-ylmethyl)-3,4-dichlorobenzamide]	> 1000		13	
CCc1cc2c(s1)-n1c(nnc1[C@@H](CCC(=O)O)NC(=O)c1cc3ccccc3[nH]1)CN=C2c1ccccc1Cl [Example 280, (R)-(-)-4-(4-(2-chlorophenyl)-2-ethyl-6H-thieno[3,2-f] [1,2,4]triazolo[4,3-a] [1,4]diazepin-9-yl)-4-(1H-indole-2-carboxamide)butanoic acid]	> 1000		2.7	78.1 ± 7.6
CCc1cc2c(s1)-n1c(nnc1[C@@H](CCC(=O)O)NC(=O)c1ccc(Cl)c(Cl)c1)CN=C2c1ccccc1Cl [Example 277, (R)-(-)-4-(3,4-dichlorobenzoylamino)-4-(4-(2-chlorophenyl)-2-ethyl-6H-thieno[3,2-f] [1,2,4]triazolo[4,3-a] [1,4]diazepin-9-yl)butanoic acid]	> 1000		9.6	85.1 ± 12.1
CCc1cc(C(=O)c2ccccc2Cl)c(-n2c(Br)nnc2CNC(=O)c2cc3ccccc3[nH]2)s1 [Example 72, N-(3-bromo-4-(3-(2-chlorobenzoyl)-5-ethylthiophen-2-yl) [1,2,4]triazol-5-ylmethyl)indole-2-carboxamide]	> 1000	3.2		
CCc1cc(C(=O)c2ccccc2Cl)c(-n2c(C)nnc2CNC(=O)c2ccc(Cl)cc2N)s1 [Example 338, 2-amino-4-chloro-N-(4-(3-(2-chlorobenzoyl)-5-ethylthiophen-2-yl)-5-methyl[1,2,4]triazol-3-ylmethyl)benzamide]	> 1000	7.6		
CCc1cc(C(=O)c2ccccc2Cl)c(-n2c(C)nnc2CNC(=O)Nc2cccc(C)c2)s1 [Example 26, N-(4-(3-(2-chlorobenzoyl)-5-ethylthiophen-2-yl)-5-methyl[1,2,4]triazol-3-ylmethyl)-N'-(3-methylphenyl)urea]	> 1000	5.6		

Continued, in another order:

IC50 [1] [nM]	IC50 [2, 4] [nM]	Compound	IC50 [2] [nM]	Inhibition of CCK-8-induced secretion of pancreatic juice [3] [%]
> 1000	6.6	Cc1nnc(CNC(=O)c2cc3ccccc3[nH]2)n1-c1sc(C(=O)O)cc1C(=O)c1ccccc1Cl [Example 252, (3-(2-chlorobenzoyl)-2-(3-(2-indolecarbonylaminomethyl)-5-methyl[1,2,4]triazol-4-yl)thiophen-5-yl)carboxylic acid]		82.6 ± 2.6
> 1000	4.8	CCc1cc(C(=O)c2ccccc2Cl)c(-n2c(C)nnc2CNC(=O)Nc2cccc(OC)c2)s1 [Example 27, N-(4-(3-(2-chlorobenzoyl)-5-ethylthiophen-2-yl)-5-methyl[1,2,4]triazol-3-ylmethyl)-N'-(3-methoxyphenyl)urea]		
> 1000	10.6	CCc1cc(C(=O)c2ccccc2Cl)c(-n2c(C)nnc2CNC(=O)c2cc3ccccc3n2CC(=O)O)s1 [Example 19, 2-(4-(3-(2-chlorobenzoyl)-5-ethylthiophen-2-yl)-5-methyl[1,2,4]triazol-3-ylmethylcarbamoyl)indole-1-acetic acid]		81.9 ± 5.9
> 1000	3.7	CCc1cc(C(=O)c2ccccc2Cl)c(-n2c(C)nnc2CNC(=O)c2cc3ccccc3[nH]2)s1 [Example 14, N-(4-(3-(2-chlorobenzoyl)-5-ethylthiophen-2-yl)-5-methyl[1,2,4]triazol-3-ylmethyl)indole-2-carboxamide]		
> 1000	7.5	CCc1cc(C(=O)c2ccccc2Cl)c(-n2c(C)nnc2CNC(=O)c2ccc(Cl)c(Cl)c2)s1 [Example 11, N-(4-(3-(2-chlorobenzoyl)-5-ethylthiophen-2-yl)-5-methyl[1,2,4]triazol-3-ylmethyl)-3,4-dichlorobenzamide]		
